Source: patent US9023789B2, “Amylin analogs and pharmaceutical compositions thereof” (Novo Nordisk A/S, priority 2012, dated 2015)
pEC50, pIC50: −log10 of the molar value. Like-named read-outs stand apart in the source and are kept apart here. Numbered stars: 1 amine (or outer) side, 2 acyl side, 3 side chain; on linkers, the order of the positions; unused ones are H or OH. Bridge positions count the residues as written; N and C are the ends. Side chains are listed from the residue outwards. Peptide text beside a SMILES is read from it. * marks the point of attachment. C20 diacid = O=C(O)CCCCCCCCCCCCCCCCCCC(=O)*; γGlu = O=C(O)[C@H](CCC(=O)[*:2])N[*:1]

Columns and labels:
[1] = target: T1, human amylin receptor (membranes from Amylin 3(a)/CRE-luc cells) (Homo sapiens, UniProt O60896+P30988); experiment: ASSAY (V) binding to the human amylin receptor (SPA, 125I-rat amylin);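 note: competition binding of cell membranes (35 ng/µL) mixed with SPA beads in 384-well plates at 40 µL total volume, read by scintillation counting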
T1 construct: expressed in transfected cells
T1 sequence (P30988 25-474): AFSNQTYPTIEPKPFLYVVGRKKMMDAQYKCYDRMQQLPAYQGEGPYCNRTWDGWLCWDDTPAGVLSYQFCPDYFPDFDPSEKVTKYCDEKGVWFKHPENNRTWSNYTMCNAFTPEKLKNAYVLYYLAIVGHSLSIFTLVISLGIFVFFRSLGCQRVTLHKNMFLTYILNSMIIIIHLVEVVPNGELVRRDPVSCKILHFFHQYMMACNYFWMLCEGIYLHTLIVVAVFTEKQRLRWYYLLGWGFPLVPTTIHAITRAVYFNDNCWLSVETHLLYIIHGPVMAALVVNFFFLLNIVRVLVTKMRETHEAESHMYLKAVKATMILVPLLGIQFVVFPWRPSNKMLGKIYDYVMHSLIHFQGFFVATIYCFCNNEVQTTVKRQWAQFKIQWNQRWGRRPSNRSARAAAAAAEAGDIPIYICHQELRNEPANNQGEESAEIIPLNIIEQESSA
T1 sequence (O60896 24-148 partner): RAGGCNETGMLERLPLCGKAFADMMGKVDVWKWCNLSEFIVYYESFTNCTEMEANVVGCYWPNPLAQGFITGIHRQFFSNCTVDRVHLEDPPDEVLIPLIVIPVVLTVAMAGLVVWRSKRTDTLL

[2] = ASSAY (III) ThT fibrillation assay for physical stability; assay type: physicochemical
Outline: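 Formulations with 1 μM ThT, pH adjusted as required, incubated at 37 °C with 960 rpm orbital shaking; fluorescence (ex 444/em 485 nm) read every 20 min. Fibrillation reported as mean ThT fluorescence ± SD of 4–8 replicates at time points; polypeptide concentration measured by reverse-phase HPLC before and after, post-centrifugation.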

[3] = target: T2, human amylin 3(a) receptor (human calcitonin receptor + RAMP-3) in BHK570 cells (Homo sapiens, UniProt O60896+P30988); experiment: ASSAY (II)a functional assay, human amylin receptor (CRE luciferase); assay type: cell-based
T2 construct: expressed in transfected cells
Outline: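 BHK CRE-luc cells, calcitonin (a) receptor ± RAMP-3 (amylin 3(a)); overnight seeding, 37° C/5% CO2. 3 h ligand exposure, DMEM/10% FBS/10 mM Hepes pH 7.4. LucLite 30 min RT; luminescence (SPC).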

[4] = Table 5, selectivity, hCTR bind IC50 / hAmylin-R bind IC50
[5] = Table 5a, selectivity, hCTR bind IC50 / hAmylin-R bind IC50
[6] = Table 5b, selectivity, hCTR bind IC50 / hAmylin-R bind IC50
[7] = Table 5c, selectivity, hCTR bind IC50 / hAmylin-R bind IC50
[8] = Table 7, human binding selectivity, included for comparison
[9] = Table 7a (preferred compounds), human binding selectivity, included for comparison
[10] = ratio of human calcitonin receptor binding IC50 to human amylin receptor binding IC50
[11] = hCTR funct. EC50 divided by hAmylin-R funct. EC50
[12] = hCTR funct. EC50 over hAmylin-R funct. EC50
[13] = human functional selectivity: hCTR funct. EC50 / hAmylin-R funct. EC50
[14] = Table 4, read-out: hAmylin-R bind IC50
[15] = human amylin receptor functional potency, assay (II), read-out: hAmylin-R funct. EC50

Ratio hCT/hAmylin binding [1, 4] | Ratio hCT/hAmylin binding [1, 5] | Ratio hCT/hAmylin binding [1, 6] | Ratio hCT/hAmylin binding [1, 8] | Ratio hCT/hAmylin binding [1, 9] | Ratio hCT/hAmylin binding [1, 10] | ThT pH 4.0 lag time (h) [2] [h] | Ratio hCT/hAmylin funct. [3, 11] | Ratio hCT/hAmylin funct. [3, 12] | Ratio hCT/hAmylin funct. [3, 13] | pIC50 [1, 14] | pEC50 [3, 15] | SMILES | pIC50 [1] | Ratio hCT/hAmylin binding [1, 7] | pEC50 [3] | Ratio hCT/hAmylin funct. ([3]; hCTR funct. EC50 / hAmylin-R funct. EC50)
29.1 | 29.1 | 29.1 | 29.1 | 29.1 | 29.1 | 45 | 15.8 | 15.8 | 15.8 |  |  | CC[C@H](C)[C@H](NC(=O)[C@H](C)NC(=O)CNC(=O)[C@H](Cc1ccccc1)NC(=O)[C@H](CC(N)=O)NC(=O)[C@@H]1CCCN1C(=O)[C@H](CO)NC(=O)[C@H](CO)NC(=O)[C@H](Cc1c[nH]cn1)NC(=O)[C@H](CCCNC(=N)N)NC(=O)[C@H](CC(C)C)NC(=O)[C@H](Cc1ccccc1)NC(=O)[C@H](CCC(=O)O)NC(=O)[C@H](C)NC(=O)[C@H](CC(C)C)NC(=O)[C@H](CCCNC(=N)N)NC(=O)[C@H](CCC(N)=O)NC(=O)[C@@H](NC(=O)[C@H](C)NC(=O)[C@@H]1CSSC[C@H](NC(=O)[C@@H](N)CCCCNC(=O)CC[C@H](NC(=O)CC[C@H](NC(=O)CCCCCCCCCCCCCCCCCCC(=O)O)C(=O)O)C(=O)O)C(=O)N[C@@H](CC(N)=O)C(=O)N[C@@H]([C@@H](C)O)C(=O)N[C@@H](C)C(=O)N[C@@H]([C@@H](C)O)C(=O)N1)[C@@H](C)O)C(=O)N1CCC[C@H]1C(=O)N[C@@H](CO)C(=O)N[C@@H](CO)C(=O)N[C@H](C(=O)N[C@@H](CC(N)=O)C(=O)N[C@H](C(=O)NCC(=O)N[C@@H](Cc1c[nH]cn1)C(=O)N[C@@H](CCC(=O)O)C(=O)N[C@H](C(=O)N[C@@H](Cc1ccc(O)cc1)C(N)=O)[C@@H](C)O)C(C)C)[C@@H](C)O [Example 104] (H-K([γGlu-γGlu-C20 diacid])CNTATCATQRLAEFLRHSSPNFGAIPSSTNVGHETY-NH2; disulfide 2-7; N-terminus assumed) |  | 29.1 |  | 
14.7 | 14.7 |  | 14.7 | 14.7 | 14.7 | 45 | 10.6 | 10.6 | 10.6 | 9.02 | 9.15 | CC[C@H](C)[C@H](NC(=O)[C@H](C)NC(=O)CNC(=O)[C@H](Cc1ccccc1)NC(=O)[C@H](CC(N)=O)NC(=O)[C@@H]1CCCN1C(=O)[C@H](CO)NC(=O)[C@H](CO)NC(=O)[C@H](Cc1c[nH]cn1)NC(=O)[C@H](CCCNC(=N)N)NC(=O)[C@H](CC(C)C)NC(=O)[C@H](Cc1ccccc1)NC(=O)[C@H](CCC(=O)O)NC(=O)[C@H](C)NC(=O)[C@H](CC(C)C)NC(=O)[C@H](CCCNC(=N)N)NC(=O)[C@H](CCC(N)=O)NC(=O)[C@@H](NC(=O)[C@H](C)NC(=O)[C@@H]1CSSC[C@H](NC(=O)[C@@H](N)CCCCNC(=O)CC[C@H](NC(=O)CC[C@H](NC(=O)CCCCCCCCCCCCCCCCCCC(=O)O)C(=O)O)C(=O)O)C(=O)N[C@@H](CC(N)=O)C(=O)N[C@@H]([C@@H](C)O)C(=O)N[C@@H](C)C(=O)N[C@@H]([C@@H](C)O)C(=O)N1)[C@@H](C)O)C(=O)N1CCC[C@H]1C(=O)N[C@@H](CO)C(=O)N[C@@H](CO)C(=O)N[C@H](C(=O)N[C@@H](CC(N)=O)C(=O)N[C@H](C(=O)NCC(=O)N[C@@H](CCCNC(=N)N)C(=O)N[C@@H](CCC(=O)O)C(=O)N[C@H](C(=O)N[C@@H](Cc1ccc(O)cc1)C(N)=O)[C@@H](C)O)C(C)C)[C@@H](C)O [Example 105] (H-K([γGlu-γGlu-C20 diacid])CNTATCATQRLAEFLRHSSPNFGAIPSSTNVGRETY-NH2; disulfide 2-7; N-terminus assumed) |  |  |  | 
17.6 | 17.6 | 17.6 | 17.6 | 17.6 | 17.6 | 33 | 10.5 | 10.5 | 10.5 | 9.92 | 9.65 | CC[C@H](C)[C@H](NC(=O)[C@H](C)NC(=O)CNC(=O)[C@H](Cc1ccccc1)NC(=O)[C@H](CC(N)=O)NC(=O)[C@@H]1CCCN1C(=O)[C@H](CO)NC(=O)[C@H](CO)NC(=O)[C@H](Cc1c[nH]cn1)NC(=O)[C@H](CCCNC(=N)N)NC(=O)[C@H](CC(C)C)NC(=O)[C@H](Cc1ccccc1)NC(=O)[C@H](CCC(=O)O)NC(=O)[C@H](C)NC(=O)[C@H](CC(C)C)NC(=O)[C@H](CCCNC(=N)N)NC(=O)[C@H](CCC(N)=O)NC(=O)[C@@H](NC(=O)[C@H](C)NC(=O)[C@@H]1CSSC[C@H](NC(=O)[C@@H](N)CCCCNC(=O)CC[C@H](NC(=O)CC[C@H](NC(=O)CCCCCCCCCCCCCCCCCCC(=O)O)C(=O)O)C(=O)O)C(=O)N[C@@H](CC(N)=O)C(=O)N[C@@H]([C@@H](C)O)C(=O)N[C@@H](C)C(=O)N[C@@H]([C@@H](C)O)C(=O)N1)[C@@H](C)O)C(=O)N1CCC[C@H]1C(=O)N[C@@H](CO)C(=O)N[C@@H](CO)C(=O)N[C@H](C(=O)N[C@@H](CC(N)=O)C(=O)N[C@H](C(=O)NCC(=O)N1CCC[C@H]1C(=O)N[C@@H](CCC(=O)O)C(=O)N[C@H](C(=O)N[C@@H](Cc1ccc(O)cc1)C(N)=O)[C@@H](C)O)C(C)C)[C@@H](C)O [Example 106] (H-K([γGlu-γGlu-C20 diacid])CNTATCATQRLAEFLRHSSPNFGAIPSSTNVGPETY-NH2; disulfide 2-7; N-terminus assumed) |  |  |  | 

SMILES | Ratio hCT/hAmylin binding [1, 4] | Ratio hCT/hAmylin binding [1, 5] | Ratio hCT/hAmylin binding [1, 6] | Ratio hCT/hAmylin binding [1, 8] | Ratio hCT/hAmylin binding [1, 9] | Ratio hCT/hAmylin binding [1, 10] | ThT pH 4.0 lag time (h) [2] [h] | Ratio hCT/hAmylin funct. [3, 11] | Ratio hCT/hAmylin funct. [3, 12] | Ratio hCT/hAmylin funct. [3, 13] | pIC50 [1, 14] | pEC50 [3, 15] | pIC50 [1] | Ratio hCT/hAmylin binding [1, 7] | pEC50 [3] | Ratio hCT/hAmylin funct. ([3]; hCTR funct. EC50 / hAmylin-R funct. EC50)
CC[C@H](C)[C@H](NC(=O)[C@H](C)NC(=O)CNC(=O)[C@H](Cc1ccccc1)NC(=O)[C@H](CC(N)=O)NC(=O)[C@@H]1CCCN1C(=O)[C@H](CO)NC(=O)[C@H](CO)NC(=O)[C@H](Cc1c[nH]cn1)NC(=O)[C@H](CCCNC(=N)N)NC(=O)[C@H](CC(C)C)NC(=O)[C@H](Cc1ccccc1)NC(=O)[C@H](C)NC(=O)[C@H](C)NC(=O)[C@H](CC(C)C)NC(=O)[C@H](CCCNC(=N)N)NC(=O)[C@H](CCC(N)=O)NC(=O)[C@@H](NC(=O)[C@H](C)NC(=O)[C@@H]1CSSC[C@H](NC(=O)[C@H](CCCNC(=N)N)NC(=O)CNC(=O)CC[C@H](NC(=O)CCCCCCCCCCCCCCCCCCC(=O)O)C(=O)O)C(=O)N[C@@H](CC(N)=O)C(=O)N[C@@H]([C@@H](C)O)C(=O)N[C@@H](C)C(=O)N[C@@H]([C@@H](C)O)C(=O)N1)[C@@H](C)O)C(=O)N1CCC[C@H]1C(=O)N[C@@H](CO)C(=O)N[C@@H](CO)C(=O)N[C@H](C(=O)N[C@@H](CC(N)=O)C(=O)N[C@H](C(=O)NCC(=O)N1CCC[C@H]1C(=O)N[C@@H](CC(N)=O)C(=O)N[C@H](C(=O)N[C@@H](Cc1ccc(O)cc1)C(N)=O)[C@@H](C)O)C(C)C)[C@@H](C)O [Example 103] ({C20 diacid-γGlu}-GRCNTATCATQRLAAFLRHSSPNFGAIPSSTNVGPNTY-NH2; disulfide 3-8) | 26.5 | 26.5 | 26.5 | 26.5 | 26.5 | 26.5 | 45 | 2.1 | 2.1 | 2.1 |  |  | 9.94 | 26.5 | 10.15 | 2.1
